According to patent US20230183243A1, “HETEROARYL DERIVATIVES AND PHARMACEUTICAL COMPOSITION COMPRISING SAME AS ACTIVE INGREDIENT” (VORONOI INC., priority 2019, published 2023):

How the values were obtained:
DU145 = assay: Cell proliferation inhibition, carcinomas other than TNBC; assay type: cell-based; details: Homo sapiens, DU-145
Description: (§1) To check an ability to inhibit the growth of (MDA-MB-231) cells in two triple-negative breast cancer cell lines, a test was performed, as follows. Cells were seeded in 180 μL of a culture broth at a density of 2,000 to 3,000 cells/well in a white clear bottom 96-well plate (Corning) according to the growth ability of each cell, and then cultured for 24 hours under conditions of 5% CO2 and 37° C. Thereafter, the compound was prepared by diluting a 10 mM stock solution three-fold with 100% DMSO at a total of 12 concentrations so that a peak concentration of the compound was in a range of 10 mM to 0.05 μM, and the diluted compound was then diluted in each cell culture medium so that a final concentration of the compound was in a range of 100 μM to 0.5 nM. 20 μL of a diluted solution diluted with a medium was added to the cell solution in which cells were seeded in the 96-well plate on the previous day so that a final concentration of the diluted solution was in a range of 10 μM to 0.05 nM. Each of the cells was cultured for 5 days. To check cell viability, a mixture provided in a CellTiter-Glo® Luminescent Cell Viability Assay Kit (Promega) was added to each of the cultured cell media, and cultured for another 10 minutes under a condition of 37° C. Then, a degree of luminescence (fluorescence) was measured. A degree of inhibition of the cell growth according to the treatment concentration of each of the compounds was calculated based on the fluorescence of the solvent control cells which were not treated with the compound. In this case, the concentration of each of the compounds inhibiting 50% of the cell growth was determined to be a GI50 (nM) value, and calculated using Prism (Version 7.01; GraphPad) software.
(§2) Next, the activities of the Example compounds against various types of carcinomas other than the TNBC were evaluated in a similar manner as described above. In the following table, the following active value range (GI50 (nM)) was used to evaluate cell proliferation inhibitory activity.

HCT116 = assay: as above; assay type: cell-based; details: Homo sapiens, HCT-116
Description: as §1, §2

A549 = assay: as above; assay type: cell-based; details: Homo sapiens
Description: as §1, §2

MAPKAPK2 = biological target: T1, MAPKAPK2 (Homo sapiens, UniProt P49137); assay: ScanMAX Kinase panel (DiscoverX); assay type: binding; details: read-out: % Cont @ 1 μM
T1 construct: purchased DiscoverX Corp. (ScanMAX Kinase panel, commissioned)
Description: (§3) Specifically, the enzyme (kinase) selectivity of the compound of Example 7 selected from the Example compounds of the present invention was measured by commissioning DiscoverX Corp., and an experiment was performed using a panel for ScanMAX™ Kinase analysis.
(§4) In this case, the concentration of a drug treated with the enzyme was set at 1 μM in DMSO, and percent control (% control) was defined in the same manner as in the following Expression 1.
(§5) (Example compound−Positive control)/(Negative control−Positive control)×100 [Expression 1]
(§6) Wherein the positive control represents a compound having a percent control of 0%, and the negative control represents a compound having a percent control of 100% in DMSO. For the enzyme selectivity of the present invention, the compound was also judged to have activity against the corresponding enzyme when the percent control for each of the enzymes was <30% (i.e., less than 30%).
(§7) Further, to evaluate the inhibitory activity of the compound according to the present invention against more enzymes, an experiment was performed as follows. Specifically, the enzyme (kinase) selectivity of the compound of Example 64 selected from the Example compounds of the present invention was measured by commissioning DiscoverX Corp., and an experiment was performed using a panel for ScanMAX™ Kinase analysis. In this case, the concentration of a drug treated with the enzyme was set at 1 μM in DMSO, and the percent control (% control) were defined in the same manner as in the following Expression 1.
as §6, with “<35%” for “<30%”, “35%).” for “30%).”

LRRK2(G2019S) = biological target: T2, LRRK2(G2019S) (Homo sapiens, UniProt Q5S007, G2019S); assay: ScanMAX Kinase panel (DiscoverX); assay type: binding; details: read-out: % Cont @ 1 μM
T2 construct: purchased DiscoverX Corp. (ScanMAX Kinase panel, commissioned)
T2 sequence (Q5S007 whole entry G2019S): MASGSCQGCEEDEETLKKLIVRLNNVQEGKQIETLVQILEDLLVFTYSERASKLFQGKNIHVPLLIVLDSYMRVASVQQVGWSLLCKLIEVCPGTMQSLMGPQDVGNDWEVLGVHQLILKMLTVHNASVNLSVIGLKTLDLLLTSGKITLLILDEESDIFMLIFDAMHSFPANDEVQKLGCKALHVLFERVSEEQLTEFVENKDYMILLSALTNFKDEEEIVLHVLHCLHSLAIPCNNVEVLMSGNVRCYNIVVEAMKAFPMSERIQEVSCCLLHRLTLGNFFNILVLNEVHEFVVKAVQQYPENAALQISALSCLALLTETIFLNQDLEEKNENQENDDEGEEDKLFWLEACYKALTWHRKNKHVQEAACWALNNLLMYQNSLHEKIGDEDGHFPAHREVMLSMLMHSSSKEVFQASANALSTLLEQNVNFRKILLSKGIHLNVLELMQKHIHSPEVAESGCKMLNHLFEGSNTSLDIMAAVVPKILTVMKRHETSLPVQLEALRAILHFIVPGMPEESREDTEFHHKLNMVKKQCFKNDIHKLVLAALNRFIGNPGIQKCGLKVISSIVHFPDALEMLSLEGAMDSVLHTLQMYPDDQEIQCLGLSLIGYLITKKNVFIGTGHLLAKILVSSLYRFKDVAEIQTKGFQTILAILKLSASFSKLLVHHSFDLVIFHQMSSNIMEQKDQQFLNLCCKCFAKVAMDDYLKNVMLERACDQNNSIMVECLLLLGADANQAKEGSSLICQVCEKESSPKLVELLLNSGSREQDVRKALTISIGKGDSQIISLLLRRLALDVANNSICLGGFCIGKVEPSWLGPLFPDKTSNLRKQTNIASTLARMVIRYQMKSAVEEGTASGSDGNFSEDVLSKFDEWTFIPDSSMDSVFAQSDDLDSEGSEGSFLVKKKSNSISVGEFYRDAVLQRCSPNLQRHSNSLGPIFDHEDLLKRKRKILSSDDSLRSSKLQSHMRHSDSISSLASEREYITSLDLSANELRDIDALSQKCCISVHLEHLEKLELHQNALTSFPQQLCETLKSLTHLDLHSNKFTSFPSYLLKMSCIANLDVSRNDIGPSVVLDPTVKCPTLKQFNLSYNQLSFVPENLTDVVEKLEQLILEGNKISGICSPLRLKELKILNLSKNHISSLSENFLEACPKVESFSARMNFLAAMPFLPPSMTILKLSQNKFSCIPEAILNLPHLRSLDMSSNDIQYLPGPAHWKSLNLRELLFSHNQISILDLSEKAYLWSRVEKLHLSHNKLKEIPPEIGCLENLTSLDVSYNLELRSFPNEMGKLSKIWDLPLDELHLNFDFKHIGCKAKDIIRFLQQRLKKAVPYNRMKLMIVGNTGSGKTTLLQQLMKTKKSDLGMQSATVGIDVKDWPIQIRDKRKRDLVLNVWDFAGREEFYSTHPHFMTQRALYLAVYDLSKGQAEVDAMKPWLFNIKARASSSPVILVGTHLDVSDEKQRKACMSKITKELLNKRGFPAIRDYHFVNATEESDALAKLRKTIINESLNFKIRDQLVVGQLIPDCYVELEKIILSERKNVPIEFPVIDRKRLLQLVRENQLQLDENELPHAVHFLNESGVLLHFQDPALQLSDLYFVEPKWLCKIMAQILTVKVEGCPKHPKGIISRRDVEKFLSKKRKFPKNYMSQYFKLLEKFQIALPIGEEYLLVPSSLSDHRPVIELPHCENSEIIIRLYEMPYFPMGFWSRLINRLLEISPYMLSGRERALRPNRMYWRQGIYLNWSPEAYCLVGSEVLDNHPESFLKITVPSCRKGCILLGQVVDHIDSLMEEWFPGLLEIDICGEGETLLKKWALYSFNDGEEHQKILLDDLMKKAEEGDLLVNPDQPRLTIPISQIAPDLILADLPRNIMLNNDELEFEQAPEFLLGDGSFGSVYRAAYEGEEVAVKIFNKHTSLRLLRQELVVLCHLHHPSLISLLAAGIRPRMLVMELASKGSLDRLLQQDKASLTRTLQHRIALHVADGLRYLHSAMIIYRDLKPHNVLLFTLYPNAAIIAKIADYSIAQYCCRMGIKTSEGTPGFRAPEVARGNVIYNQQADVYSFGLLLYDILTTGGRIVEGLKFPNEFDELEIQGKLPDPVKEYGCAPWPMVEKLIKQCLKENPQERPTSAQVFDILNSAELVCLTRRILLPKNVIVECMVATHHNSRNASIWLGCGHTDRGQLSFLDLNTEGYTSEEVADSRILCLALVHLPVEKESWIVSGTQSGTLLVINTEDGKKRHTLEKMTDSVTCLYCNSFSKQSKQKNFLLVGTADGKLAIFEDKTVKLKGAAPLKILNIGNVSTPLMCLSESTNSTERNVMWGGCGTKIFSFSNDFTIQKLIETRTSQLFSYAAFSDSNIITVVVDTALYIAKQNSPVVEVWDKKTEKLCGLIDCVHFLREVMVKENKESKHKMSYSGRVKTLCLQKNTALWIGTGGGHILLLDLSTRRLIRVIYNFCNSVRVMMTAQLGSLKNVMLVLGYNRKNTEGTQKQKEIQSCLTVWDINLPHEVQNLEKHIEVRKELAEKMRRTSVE
Description: as §3, §4, §5, §6, §7
as §6, with “<35%” for “<30%”, “35%).” for “30%).”

GRK4 = biological target: T3, GRK4 (Homo sapiens, UniProt P32298); assay: ScanMAX Kinase panel (DiscoverX); assay type: binding; details: read-out: % Cont @ 1 μM
T3 construct: purchased DiscoverX Corp. (ScanMAX Kinase panel, commissioned)
T3 sequence (P32298 whole entry): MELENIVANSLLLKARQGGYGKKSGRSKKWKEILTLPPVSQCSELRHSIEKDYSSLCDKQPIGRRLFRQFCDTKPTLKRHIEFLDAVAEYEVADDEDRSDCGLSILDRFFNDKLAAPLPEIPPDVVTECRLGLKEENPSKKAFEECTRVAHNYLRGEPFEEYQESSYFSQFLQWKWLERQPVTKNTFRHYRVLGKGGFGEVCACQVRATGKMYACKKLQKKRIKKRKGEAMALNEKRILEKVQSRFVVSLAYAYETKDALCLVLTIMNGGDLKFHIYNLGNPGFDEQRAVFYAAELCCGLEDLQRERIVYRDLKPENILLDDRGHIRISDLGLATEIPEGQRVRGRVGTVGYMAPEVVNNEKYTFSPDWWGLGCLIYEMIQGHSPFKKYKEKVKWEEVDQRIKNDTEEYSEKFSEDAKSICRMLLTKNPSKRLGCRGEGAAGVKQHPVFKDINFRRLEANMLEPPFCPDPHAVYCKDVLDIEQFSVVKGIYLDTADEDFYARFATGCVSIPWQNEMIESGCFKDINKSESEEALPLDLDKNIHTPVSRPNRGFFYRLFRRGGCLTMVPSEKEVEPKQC
Description: as §3, §4, §5, §6, §7
as §6, with “<35%” for “<30%”, “35%).” for “30%).”

JNK1 = biological target: T4, JNK1 (Homo sapiens, UniProt P45983); assay: ScanMAX Kinase panel (DiscoverX); assay type: binding
T4 construct: purchased DiscoverX Corp. (ScanMAX Kinase panel, commissioned)
Description: as §3, §4, §5, §6, §7
as §6, with “<35%” for “<30%”, “35%).” for “30%).”

[1] = biological target: T5, ABL1(F317L)-nonphosphorylated (Homo sapiens, UniProt P00519, F317L); assay: ScanMAX Kinase panel (DiscoverX); assay type: binding; details: read-out: % Cont @ 1 μM
T5 construct: purchased DiscoverX Corp. (ScanMAX Kinase panel, commissioned)
T5 sequence (P00519 whole entry F317L): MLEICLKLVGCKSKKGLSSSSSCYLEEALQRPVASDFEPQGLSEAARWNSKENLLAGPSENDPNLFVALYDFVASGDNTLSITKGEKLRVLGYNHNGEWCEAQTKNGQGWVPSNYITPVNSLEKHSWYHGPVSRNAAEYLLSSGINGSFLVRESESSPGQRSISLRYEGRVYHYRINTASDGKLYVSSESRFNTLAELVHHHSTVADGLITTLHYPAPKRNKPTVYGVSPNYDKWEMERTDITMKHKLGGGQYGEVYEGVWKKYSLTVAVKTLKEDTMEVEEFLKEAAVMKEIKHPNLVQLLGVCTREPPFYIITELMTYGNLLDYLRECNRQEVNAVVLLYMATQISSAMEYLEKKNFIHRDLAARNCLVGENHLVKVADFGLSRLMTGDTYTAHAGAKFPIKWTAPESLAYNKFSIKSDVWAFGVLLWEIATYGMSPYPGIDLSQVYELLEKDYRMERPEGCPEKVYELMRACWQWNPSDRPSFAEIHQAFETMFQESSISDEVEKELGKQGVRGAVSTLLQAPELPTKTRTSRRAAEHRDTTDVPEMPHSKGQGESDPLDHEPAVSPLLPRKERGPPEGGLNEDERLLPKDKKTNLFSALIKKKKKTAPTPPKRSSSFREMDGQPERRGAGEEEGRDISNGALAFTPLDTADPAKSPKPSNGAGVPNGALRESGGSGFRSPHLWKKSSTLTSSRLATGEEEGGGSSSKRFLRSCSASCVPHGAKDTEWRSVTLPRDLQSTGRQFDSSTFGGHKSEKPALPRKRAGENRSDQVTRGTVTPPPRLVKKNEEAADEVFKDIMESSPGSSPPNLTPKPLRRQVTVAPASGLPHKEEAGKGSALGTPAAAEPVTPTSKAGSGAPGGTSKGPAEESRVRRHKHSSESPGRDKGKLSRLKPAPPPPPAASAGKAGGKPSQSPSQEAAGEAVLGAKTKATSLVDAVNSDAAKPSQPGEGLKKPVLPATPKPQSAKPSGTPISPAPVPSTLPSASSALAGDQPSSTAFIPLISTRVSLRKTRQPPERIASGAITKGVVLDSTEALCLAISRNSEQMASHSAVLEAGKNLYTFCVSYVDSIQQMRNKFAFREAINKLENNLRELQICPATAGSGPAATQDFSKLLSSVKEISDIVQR
Description: as §3, §4, §5, §6, §7
as §6, with “<35%” for “<30%”, “35%).” for “30%).”

JNK2 = biological target: T6, JNK2 (Homo sapiens, UniProt P45984); assay: ScanMAX Kinase panel (DiscoverX); assay type: binding
T6 construct: purchased DiscoverX Corp. (ScanMAX Kinase panel, commissioned)
T6 sequence (P45984 whole entry): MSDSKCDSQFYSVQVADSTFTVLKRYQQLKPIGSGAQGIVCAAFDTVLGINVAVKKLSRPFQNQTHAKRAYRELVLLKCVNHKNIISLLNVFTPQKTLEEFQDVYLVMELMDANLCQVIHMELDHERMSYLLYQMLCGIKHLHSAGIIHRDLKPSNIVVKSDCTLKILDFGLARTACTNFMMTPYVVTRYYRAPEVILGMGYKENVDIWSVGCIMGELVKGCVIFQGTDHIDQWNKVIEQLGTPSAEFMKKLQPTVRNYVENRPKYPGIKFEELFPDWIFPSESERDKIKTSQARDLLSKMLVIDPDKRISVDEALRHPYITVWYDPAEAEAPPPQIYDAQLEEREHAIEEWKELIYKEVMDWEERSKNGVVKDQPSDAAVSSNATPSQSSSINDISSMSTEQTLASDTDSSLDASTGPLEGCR
Description: as §3, §4, §5, §6, §7
as §6, with “<35%” for “<30%”, “35%).” for “30%).”

JNK3 = biological target: T7, JNK3 (Homo sapiens, UniProt P53779); assay: ScanMAX Kinase panel (DiscoverX); assay type: binding
T7 construct: purchased DiscoverX Corp. (ScanMAX Kinase panel, commissioned)
T7 sequence (P53779 whole entry): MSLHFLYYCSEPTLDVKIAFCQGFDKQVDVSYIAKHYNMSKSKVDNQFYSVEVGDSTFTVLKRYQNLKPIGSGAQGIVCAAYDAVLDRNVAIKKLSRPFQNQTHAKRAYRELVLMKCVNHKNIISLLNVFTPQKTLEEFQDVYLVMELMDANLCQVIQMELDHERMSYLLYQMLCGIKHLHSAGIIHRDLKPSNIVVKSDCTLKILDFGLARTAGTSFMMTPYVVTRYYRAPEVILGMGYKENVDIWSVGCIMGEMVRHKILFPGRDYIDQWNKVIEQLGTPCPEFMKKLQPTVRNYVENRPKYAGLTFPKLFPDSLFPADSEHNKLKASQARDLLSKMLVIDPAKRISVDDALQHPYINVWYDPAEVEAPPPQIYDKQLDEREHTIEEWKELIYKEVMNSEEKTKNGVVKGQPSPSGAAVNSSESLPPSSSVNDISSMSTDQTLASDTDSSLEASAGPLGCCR
Description: as §3, §4, §5, §6, §7
as §6, with “<35%” for “<30%”, “35%).” for “30%).”

LRRK2 = LRRK2 (Homo sapiens, UniProt Q5S007); assay: LRRK2 enzyme activity, ADP-Glo kinase assay; assay type: biochemical; parameters: purchased Invitrogen PR8604B; details: purified human LRRK2, ATP 10 μM, 25° C., 2 hours
Description: To evaluate the inhibitory activity of the compound according to the present invention against LRRK2 and JNKs, an experiment was performed as follows.
The compound of Example 7 was reacted with a purified human LRRK2 (Invitrogen #PR8604B) enzyme to evaluate an ability of the compound of Example 7 to inhibit the enzyme using a method as described below. A composition of 40 mM Tris-HCl (pH 7.4), 20 mM MgCl2, 0.5 mg/mL BSA, and 50 μM DTT was used as a reaction buffer, and all reactions of test substances were performed in the reaction buffer. The compound was diluted […] from a 10 mM DMSO stock using a serial dilution method, and enzyme activity was measured at final compound concentrations of 50, 10, 2, 0.4, 0.08, 0.016, 0.0032, 0.00064, 0.000128, 0.0000256, 0.00000512, and 0.000001024 μM. In the test, purified ATP (10 μM) and an enzyme substrate (0.2 μg) were reacted with a human LRRK2 (25 ng) enzyme at 25° C. for 2 hours, and the enzyme activity was then determined using an in vitro ADP-Glo™ kinase assay (Promega). An enzyme-activity reaction solution, an ADP-Glo reaction solution, and an enzyme-ability detection solution were reacted at a ratio of 2:2:1 to measure a degree of inhibition of the enzyme activity with luminescence. […]

GI50 (DU145) [nM]	GI50 (HCT116) [nM]	GI50 (A549) [nM]	remaining binding at 1 µM (MAPKAPK2) [%]	percent of control (kinase binding) at 1 µM (LRRK2(G2019S)) [%]	remaining binding at 1 µM (GRK4) [%]	% Cont @ 1 μM (JNK1) [%]	remaining binding at 1 µM [1] [%]	% Cont @ 1 μM (JNK2) [%]	% Cont @ 1 μM (JNK3) [%]	IC50 (LRRK2) [nM]	Compound
< 100	< 100	< 100	28	17	26	0.9	26	4.1	1.7	–	COc1cc(N2CCCC2=O)ccc1Nc1cc(NC2CCCCC2)c2c(C#N)c[nH]c2n1 [Example 64, 4-(cyclohexylamino)-6-((2-methoxy-4-(2-oxopyrrolidin-1-yl)phenyl)amino)-1H-pyrrolo[2,3-b] pyridine-3-carbonitrile]
–	–	–	28	2.7	29	2	28	13	4.3	< 1000	COc1cc(-c2ccnn2C)ccc1Nc1nc(NC2CCCCC2)c2c(C#N)c[nH]c2n1 [Example 7, 4-(cyclohexylamino)-2-((2-methoxy-4-(1-methyl-1H-pyrazol-5-yl)phenyl)amino)-7H-pyrrolo[2,3-d] pyrimidine-5-carbonitrile]
